# In PMC10818746, “Inhibition of CYP1A1 Alleviates Colchicine-Induced Hepatotoxicity” (Toxins, 2024):
# Experiments:
# [1] = target: T1, CYP1A1 (Homo sapiens, UniProt P04798); assay: Inhibition of CYP1A1 demethylation metabolism of colchicine by co-incubation with inhibitor; format: biochemical; conditions: colchicine 25 µM co-cultured with α-naphthoflavone 10 µM; n = 3
# T1 construct: purchased Research Institute for Liver Diseases Co., Ltd. (Shanghai, China)
# T1 sequence (P04798 1-512): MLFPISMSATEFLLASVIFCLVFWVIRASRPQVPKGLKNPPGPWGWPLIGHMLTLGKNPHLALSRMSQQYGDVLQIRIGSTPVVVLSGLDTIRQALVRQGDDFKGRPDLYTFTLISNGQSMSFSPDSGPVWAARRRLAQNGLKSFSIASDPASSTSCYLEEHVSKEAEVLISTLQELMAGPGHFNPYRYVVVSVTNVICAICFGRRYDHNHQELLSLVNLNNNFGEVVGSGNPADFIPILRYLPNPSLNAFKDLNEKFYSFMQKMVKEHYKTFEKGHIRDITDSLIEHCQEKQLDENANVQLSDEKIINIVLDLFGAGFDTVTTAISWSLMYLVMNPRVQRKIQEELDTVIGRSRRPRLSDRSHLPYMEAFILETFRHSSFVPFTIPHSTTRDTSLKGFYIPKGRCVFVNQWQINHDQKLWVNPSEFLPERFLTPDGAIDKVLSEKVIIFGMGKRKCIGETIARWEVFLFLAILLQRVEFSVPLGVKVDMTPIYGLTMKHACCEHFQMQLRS
# Method: The control group was a system without NADPH or colchicine. […] Pre-cooled acetonitrile was used to terminate the reaction, and then centrifugation (4 °C, 12,000 rpm, 20 min) was performed to obtain the sample.
# All samples were analyzed as shown in [17] and are briefly described in Supporting Information.
# [2] = system: CASPASE-1-GSDMD pathway; assay: Western blot of CASPASE-1-GSDMD pathway in primary hepatocytes; format: cell-based, C57BL/6J mice
# Method: (§1) The method of isolating primary mouse hepatocytes from mice (C57BL/6J) was that shown in the previous report, and it is briefly described in Supporting Information.
# (§2) The cells were harvested and used for protein extraction after incubation for 48 h. […]
# (§3) Supplementary materials and methods […]
# (§4) Preparation of primary hepatocytes
# (§5) Primary mouse hepatocytes were isolated from male C57BL/6J mice as shown in previous literature. The liver was perfused through the portal vei n with Hanks solution twice (the first solution contains 1% penicillin/streptomycin, the second solution contains 0.05% collagenase IV) after mice were anesthetized with ether, and then they were killed by exsanguination. Hepatocytes were harvested by centrifugation three times (The first centrifugal condition is 50 0 rpm for 3 minutes, the second and third centrifugal condition is 1500 rpm for 5 min) after the perfused liver was passed through 100 filter sizes, and they were re‐suspended in Dulbeco Modified Eagle Medium (DMEM) (Hyclone, USA).
# (§6) Cells were collected and seeded at a density of 2 × 10^5 cells ml‐1 in plates and cultured overnight in William E (Gibco, USA) medium (0.5 U/mL insulin, 1% penicillin/streptomycin, 10% FBS and 0.4 μg/mL dexamethasone) at 37 ℃ in a humidified Air /CO2 Incubator (5% V/V). […]
# QPCR were performed as described previously. Briefly, Trizol reagent (Life Technologi es, Carlsbad, CA, USA) and SYBR Green PCR master mixture (Vazyme, Nanjing, China) were used for the experiment . The qPCR was performed in the CFX Connect real‐time system (Bio‐Rad Laboratories, Hercules, CA, USA), with 18S was used as […]
# The methods for Western blot analysis were described in previous literature. Briefly, RIPA (POO13B, Beyotime Biotech), BCA kit (P0009, Beyotime Biotech), and 5% BSA (A8020, Solarbio) buffer were used for the experiment. […]
# [3] = system: liver; assay: α-Naphthoflavone intervention in colchicine-induced liver injury in mice; format: in vivo, C57BL/6J mice
# [4] = system: CYP1A1; assay: CYP1A1 gene and protein expression in the liver of colchicine-treated mice; format: in vivo, C57BL/6J mice; conditions: colchicine 3, 5 mg/kg by gavage for 3 days; dose-dependent
# Method: (§7) Ruoyue Huang, Jingyi Duan, We n Huang, Ya n Cheng, Bei wei Zhu and Fei Li
# (§8) Supplementary materials and methods
# (§9) Reference numbers refer to the main text list
# (§10) UHPLC‐Q exactive plus MS Analysis
# (§11) All samples were analyzed on a liquid chromatography system including a Vanquish autosampler, Vanquish detector, Vanquish pump (Thremo Fisher Scientific, Santa Clara, CA). Samples were separated on an ACQUITY UPLC HSS T3 column (2.1×100 mm, […], Waters, USA). The injection volume: 5 μL, and the flow rate was 0.3 mL/min.
# (§12) Phase A was H2O containing 0.01% formic acid, and phase B was acetonitrile containing 0.01% formic acid. The elution gradient was as follows: 0‐12 mi n, 2‐98% B; 12‐14 min, 2% A; 14‐16 min, 98% A. Other parameters are as follows: column temperature 45 ℃ , flow rate of collision gas and dry gas 9 L/min. Capillary voltage 3.5 kV, temperature 350 ℃ , atomizer pressure 35 psi. Vanquish UHPLC‐Q Exactive plus MS (Thermo Fisher, USA) was collected in both positive modes, operating in full scan mode with 60‐900 m/z.
# as §4
# Primary mouse hepatocytes were isolated from male C57BL/6J mice as shown in previous literature. […]
# (§13) Quantitative real‐time PCR analysis […]
# (§14) Immunohistochemistry was determined by used the previously described method. […]
# [5] = system: CYP1A1; assay: CYP1A1 gene and protein expression in primary hepatocytes; format: cell-based, C57BL/6J mice; conditions: colchicine 4–400 µM, 48 h
# Method: as §1, §2, §3, §4, §5
# Cells were collected and seeded at a density of 2 × 10^5 cells ml‐1 in plates and cultured overnight in William E (Gibco, USA) medium (0.5 U/mL insulin, 1% penicillin/streptomycin, 10% FBS and 0.4 μg/mL dexamethasone) at 37 ℃ in a humidified Air /CO2 Incubator (5% V/V).
# Quantitative real‐time PCR analysis
# QPCR were performed as described previously. […]
# [6] = system: liver; assay: Colchicine-induced liver injury in mice
# Method: The animal studies were approved by the Animal Care and Use Committee of West China Hospital, Sichuan University (20230412004, the ethics approval date was 12 April 2023). Chengdu Yaokang Biotechnology Co., Ltd. (Chengdu, China), provided the male C57BL/6J mice (18–22 g, 6 to 8 weeks old, No. SCXK (Sichuan) 2020-034). All animals were acclimated to the experimental environment for 1 week, and finally, the animals were anesthetized with CO2 and killed [38].
# ALP, ALT and AST were measured in plasma, and MDA (Nanjing Jiancheng Bioengineering Institute, Nanjing, China) was measured in the liver. Histological characteristics were observed by preparing paraffin sections of liver tissue and performing hematoxylin and eosin (H&E) staining.
# [7] = system: primary hepatocytes; assay: MTT cell viability in primary hepatocytes co-treated with colchicine and diosmin; format: cell-based, C57BL/6J mice; conditions: diosmin pre-treatment 2 h, then colchicine 100 µM, 48 h
# From the text: The method of isolating primary mouse hepatocytes from mice (C57BL/6J) was that shown in the previous report, and it is briefly described in Supporting Information. […]
# as §3, §4, §5, §6
# QPCR were performed as described previously. Briefly, Trizol reagent (Life Technologi es, Carlsbad, CA, USA) and SYBR Green PCR master mixture (Vazyme, Nanjing, China) were used for the experiment . […]
# [8] = system: liver; assay: Diosmin co-treatment in colchicine-induced liver injury in mice; format: in vivo, C57BL/6J mice
# Method: To investigate the role of CYP1A1 in colchicine-induced liver injury in mice, a CYP1A1 agonist (diosmin) was used. […] All mice in the control group received 0.5% CMC-Na prior to the administration of water, and the mice were sacrificed for sample collection 24 h after the final administration.
# Supplementary Materials: Inhibition of CYP1A1 Alleviates
# as §7, §8, §9, §10, §11
# as §12, with “Vanquish UHPLC‐Q Exactive plus MS (Thermo Fisher, USA) was collected in both positive modes, operating in full scan mode with 60‐900 m/z.” left out
# as §13, §14
# [9] = colchicine 3, 5 mg/kg by gavage for 3 consecutive days
smiles,measurement,setting,value
O=c1cc(-c2ccccc2)oc2c1ccc1ccccc12 [α-naphthoflavone],demethylation metabolism of colchicine by CYP1A1,[1],significantly inhibited
same,CASPASE-1-GSDMD pathway protein levels in primary hepatocytes,"[2]; colchicine + different concentrations of α-naphthoflavone, dose-gradient manner, versus colchicine group",restored the abnormal protein levels
same,"colchicine-induced liver injury (AST, ALT enzyme activity and MDA oxidative stress)","[3]; α-naphthoflavone 30 mg/kg i.p. 2 h prior to colchicine 5 mg/kg, 3 days",significantly alleviated
same,"CASPASE-1-GSDMD pathway proteins (cl-CASPASE, cl-GSDMD) in the liver","[3]; α-naphthoflavone 30 mg/kg i.p. + colchicine 5 mg/kg, versus colchicine group",significantly down-regulated
"COc1cc2c(c(OC)c1OC)-c1ccc(OC)c(=O)cc1[C@@H](NC(C)=O)CC2 [colchicine, Colchicine]",mRNA and protein levels of the CYP1A1 enzyme in the liver,[4],increased
same,mRNA and protein levels of CYP1A1 in primary hepatocytes,[5],dose-dependently increased
same,CASPASE-1-GSDMD pathway in primary hepatocytes,[2]; colchicine group versus control,significantly up-regulated
same,CASPASE-1-GSDMD pathway in the liver,"[6]; colchicine 5 mg/kg, versus control group",activated
same,ALP enzyme level in plasma,[6]; [9],significantly increased
same,ALT enzyme level in plasma,[6]; [9],significantly increased
same,AST enzyme level in plasma,[6]; [9],significantly increased
same,"CASPASE-1 in the liver (gene expression, immunohistochemical staining)",[6]; [9],activated
same,body weight of mice,[6]; [9],decreased significantly
same,gross anatomy of the liver,[6]; [9],enlarged liver and shrunken gallbladder
same,"liver histology, H&E staining",[6]; [9],inflamed liver
COc1ccc(-c2cc(=O)c3c(O)cc(O[C@@H]4O[C@H](CO[C@@H]5O[C@@H](C)[C@H](O)[C@@H](O)[C@H]5O)[C@@H](O)[C@H](O)[C@H]4O)cc3o2)cc1O [diosmin],primary hepatocyte death caused by colchicine (MTT),[7],exacerbated
same,"colchicine-induced CASPASE-1-GSDMD pathway activation in the liver (cl-CASPASE, cl-GSDMD)","[8]; diosmin 100 mg/kg + colchicine 5 mg/kg, versus colchicine group",enhanced
same,"colchicine-induced hepatotoxicity (MDA, AST, ALT, ALP)",[8]; diosmin 100 mg/kg by gavage 2 h prior to colchicine 5 mg/kg,effectively aggravated
same,CASPASE-1-GSDMD pathway in primary hepatocytes,"[2]; diosmin in a dose-gradient manner + colchicine 100 µM, compared to the colchicine-only group",significantly up-regulated
